# What was measured:
# [1] = system: adult male ferrets; test: Emesis studies: vomiting induced by the emetic M6G; assay type: in vivo, ferret; settings: for mean number of vomiting episodes±SEM: 60 min observation
# Procedure: Ferrets were lightly anaesthetized with halothane for each injection. Data were videotaped and analyzed by an observer blinded to the conditions of each treatment group. During 60 min of observation the number of vomiting (emetic) episodes were counted, and activity or sleeping time was noted. […] Each ferret acted as its own control, conditions were randomized via a counter balance design and separated by at least 14 days.
# [2] = target: T1, hCB1 (Homo sapiens, UniProt P21554); test: Forskolin-stimulated cAMP assay; assay type: cell-based
# T1 construct: expressed in transfected cells; host or cells: HEK293
# Procedure: Intracellular cAMP levels were measured with a competitive protein-binding assay using intact HEK293 cells expressing hCB1 or hCB2 and a cAMP immunoassay kit from Sigma (St. Louis, Mo.). In short, forskolin stimulated cells were incubated with various concentrations of compound, cAMP anti-body and cAMP conjugate for 2 hours at ambient temperature. The reaction was stopped by emptying the wells followed by the addition of p-NPP substrate and incubation for 1 hour. […] The results were expressed as percent inhibition of forskolin-stimulated cAMP accumulation and EC50 curves were generated with the use of GraphPad Prism software.
# [3] = target: T2, CB1 receptor (Rattus norvegicus, UniProt P20272); test: [3H]CP55,940 competitive binding assay, CB1 (rat brain membranes); set-up: membrane preparations from rat brain; from tissue; host or cells: rat brain membranes
# Procedure: (§1) Compounds were tested for their CB1 and CB2 receptor using membrane preparations from rat brain or HEK293 cells expressing hCB2 receptor, respectively, and [^3H]CP55,940 as previously described 1, 36-38. Stock solutions of the compounds (10 mM in DMSO) were diluted in TME buffer (50 mM Tris-HCL, 3 mM MgCl2, 100 mM NaCl, 0.2 mM EDTA, pH 7.4) with 0.1% BSA and transferred to 96 well plates containing [^3H]CP55,940 (specific activity 128 Ci/mmol; NIDA) at a final concentration of 0.76 nM. Non-specific binding was assessed in the presence of 100 nM CP55,940. The binding reaction was initiated with the addition of the respective membrane suspension (˜50 μg membrane protein) followed by incubation at 30° C. with gentle agitation in a shaking water bath for 60 minutes. […] The filter plates were washed with ice-cold wash buffer (50 mM Tris-base, 5 mM MgCl2 with 0.5% BSA) and bound radioactivity was determined using a Packard TopCount Scintillation Counter. The results were analyzed using nonlinear regression to determine the actual IC50 and the Ki values of the ligand (Prizm by GraphPad Software, Inc.). All data were in duplicate with IC50 and Ki values determined from at least two independent experiments.
# (§2) The affinity of a compound for CB1 vs. CB2 is determined by the ratio of the inhibitory constants (Ki), as determined by the competitive binding assay.
# [4] = system: Male Sprague-Dawley (SD) rats; test: Food intake studies (experiments A, B, C), food intake and body weight; assay type: in vivo, rat
# Procedure: All experimental protocols were approved by internal guidelines. Different concentrations of drugs were administered I.P. in a 1 ml kg-1 (milliliters per kilogram) volume, except M6G, which was given s.c. (subcutaneously) in a 0.1 ml kg-1 volume.
# Food and water were presented in inverted glass bottles that attached to the outside of the cage. Food was available for 18 h each day starting at 16:00 h (12 h light-dark cycle; lights off 16:00 h).
# Intake measurements were taken at 1.5 h, 3 h, 5 h, and 18 h after food became available.
# Rats were habituated to testing and handling procedures as before. […] Food intake and body weight were monitored daily.
# On the day of the experiment each rat received only a single injection, 30 min later food was made available as described in experiment 1. Food intake was measured 0.5, 1.5, 3, 5, and 18 h after administration. Food intake and body weight were monitored daily for five days after the experiment to assess the sustained effect of a single administration of each compound.
# [5] = target: T3, hCB2 receptor (Homo sapiens, UniProt P34972); test: [3H]CP55,940 competitive binding assay, CB2 (HEK293 cells expressing hCB2); settings: against [3H]CP55,940; HEK293 hCB2 membranes
# T3 construct: expressed in transfected cells; host or cells: HEK293
# Procedure: as §1, §2
# [6] = target: T2, CB1 receptor; test: Thermoregulation assay: hypothermia induced by the CB1 agonist CP55,940; assay type: in vivo; set-up: antagonized CB1 receptors in vivo; from tissue; host or cells: whole animal, male SD rats
# Procedure: Briefly, silicone coated temperature data loggers (SubCue Inc, Calgary, Canada) were surgically implanted into the abdominal cavity of male SD (450-500 g) rats under isoflurane anesthesia (4% induction; 2-2.5% maintenance). Rats were allowed to recover for 3 days before being acclimatized to testing and handling procedures for an additional seven days. Core body temperature readings were sampled every 5 min for 300 min during the course of each experiment.
# [7] = experiment B, 5 mg kg-1 daily, day 4
# [8] = experiment B, 5 mg kg-1 daily, day 5
# T2 sequence (P20272 whole entry): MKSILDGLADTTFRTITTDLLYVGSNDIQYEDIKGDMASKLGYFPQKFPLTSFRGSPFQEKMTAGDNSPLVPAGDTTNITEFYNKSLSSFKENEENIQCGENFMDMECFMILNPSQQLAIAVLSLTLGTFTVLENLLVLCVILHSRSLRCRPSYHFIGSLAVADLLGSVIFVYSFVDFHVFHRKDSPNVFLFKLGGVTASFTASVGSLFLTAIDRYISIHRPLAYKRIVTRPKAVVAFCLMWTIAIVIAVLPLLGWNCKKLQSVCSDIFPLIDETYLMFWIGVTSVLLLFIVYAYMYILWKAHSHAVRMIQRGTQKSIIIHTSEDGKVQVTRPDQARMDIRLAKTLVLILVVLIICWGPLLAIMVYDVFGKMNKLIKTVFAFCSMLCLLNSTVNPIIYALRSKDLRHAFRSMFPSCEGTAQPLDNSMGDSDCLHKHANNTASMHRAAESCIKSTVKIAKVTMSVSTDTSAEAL
# T1 sequence (P21554 whole entry): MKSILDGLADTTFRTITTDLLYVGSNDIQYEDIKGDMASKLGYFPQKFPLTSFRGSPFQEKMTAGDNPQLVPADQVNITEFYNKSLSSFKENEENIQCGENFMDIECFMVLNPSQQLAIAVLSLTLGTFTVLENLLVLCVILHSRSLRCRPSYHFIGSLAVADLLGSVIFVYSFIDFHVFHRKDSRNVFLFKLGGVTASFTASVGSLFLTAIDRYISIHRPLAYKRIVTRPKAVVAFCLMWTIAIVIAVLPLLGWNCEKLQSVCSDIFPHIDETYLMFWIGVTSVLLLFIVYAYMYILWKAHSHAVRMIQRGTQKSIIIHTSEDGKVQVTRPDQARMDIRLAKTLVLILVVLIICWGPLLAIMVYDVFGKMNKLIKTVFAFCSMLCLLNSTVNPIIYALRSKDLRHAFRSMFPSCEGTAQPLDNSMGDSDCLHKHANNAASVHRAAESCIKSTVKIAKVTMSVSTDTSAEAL
# T3 sequence (P34972 whole entry): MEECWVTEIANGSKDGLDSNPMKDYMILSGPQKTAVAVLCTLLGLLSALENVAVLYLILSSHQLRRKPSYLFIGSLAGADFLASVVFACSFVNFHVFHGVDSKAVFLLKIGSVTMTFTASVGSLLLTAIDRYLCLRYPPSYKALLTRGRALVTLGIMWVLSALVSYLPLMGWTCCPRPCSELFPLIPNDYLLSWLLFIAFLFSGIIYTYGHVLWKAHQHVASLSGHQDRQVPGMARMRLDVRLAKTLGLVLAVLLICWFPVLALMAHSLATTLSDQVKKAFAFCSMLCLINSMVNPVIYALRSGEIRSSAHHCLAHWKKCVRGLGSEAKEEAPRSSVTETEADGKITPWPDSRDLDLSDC
compound,measurement,setting,value
Cc1c(C(=O)NN2CCCCC2)nn(-c2ccc(Cl)cc2Cl)c1-c1ccc(C#CCCC#N)cc1 [Compound 3],mean number of vomiting episodes±SEM,[1]; 5 mg kg-1 I.P. 15 min before M6G,2.0±0.6
same,mean number of vomiting episodes±SEM,[1]; 10 mg kg-1 I.P. 15 min before M6G,2.0±0.4
same,mean number of vomiting episodes±SEM,[1]; 20 mg kg-1 I.P. 15 min before M6G,2.7±0.6
same,effect on number of vomiting episodes induced by M6G compared with vehicle,"[1]; Compound 3 5, 10, 20 mg kg-1, Compound 1 5 mg kg-1",did not significantly increase
same,change of forskolin-stimulated cAMP accumulation,"[2]; CB1 transfected HEK cells, up to concentrations of 630 nM",did not change
same,effect on forskolin stimulated cAMP production,[2]; HEK293 cells transfected with human CB1 receptors,no effect
same,Ki,"[3]; against [3H]CP55,940, rat brain membranes",0.00089 ± 0.00044 µM
same,selectivity for CB1 versus CB2 receptors,[3]; ratio of Ki values,~100 fold
same,acute effect on food intake compared with vehicle,"[4]; experiment A, 5 mg kg-1 I.P. single dose",did not significantly reduced food intake
same,"food intake and weight gain, differences to vehicle treated rats","[4]; experiment B, 1 mg kg-1 daily",non significant
same,"food intake, difference compared with vehicle treated rats","[4]; experiment B, 5 mg kg-1 daily, day 3",-23.2 g
same,"food intake, difference compared with vehicle treated rats",[4]; [7],-20.4 g
same,"weight gain, difference to vehicle treated rats",[4]; [7],-15.6 g
same,"food intake, difference compared with vehicle treated rats",[4]; [8],-19.2 g
same,"weight gain, difference to vehicle treated rats",[4]; [8],-21.8 g
same,"weight gain, difference to vehicle treated rats","[4]; experiment B, 5 mg kg-1 daily, day 6",-23.7 g
same,food intake compared with vehicle,"[4]; experiment B, 1 and 5 mg kg-1 daily, first day of treatment",No significant reductions
same,differences in food intake,"[4]; experiment B, 1 and 5 mg kg-1 daily, second day of treatment",not statistically significant
same,"food intake, difference between the 1 mg kg-1 and 5 mg kg-1 doses","[4]; experiment B, daily treatment, day 3",-17.6 g
same,"weight gain, difference 5 mg kg-1 versus 1 mg kg-1","[4]; experiment B, daily treatment, day 4",-12.0 g
same,"food intake, difference compared with vehicle treated rats","[4]; experiment C, 10 mg kg-1 single dose, 3 h",-20.0 g
same,"food intake, difference compared with vehicle treated rats","[4]; experiment C, 10 mg kg-1 single dose, 5 h",-22.8 g
same,"food intake, difference compared with vehicle treated rats","[4]; experiment C, 10 mg kg-1 single dose, 18 h",-42.0 g
same,"food intake, difference compared with vehicle treated rats","[4]; experiment C, 10 mg kg-1 single dose, […]",-14.3 g
same,"food intake, difference compared with vehicle treated rats","[4]; experiment C, 20 mg kg-1 single dose, 3 h",-21.3 g
same,"food intake, difference compared with vehicle treated rats","[4]; experiment C, 20 mg kg-1 single dose, 5 h",-30.1 g
same,"food intake, difference compared with vehicle treated rats","[4]; experiment C, 20 mg kg-1 single dose, 18 h",-60.6 g
same,"food intake, difference compared with vehicle treated rats","[4]; experiment C, 20 mg kg-1 single dose, […]",-15.0 g
same,weight gain for several days after the experiment,"[4]; experiment C, single administration (Compound 1 5 mg kg-1; Compound 3 10, 20 mg kg-1)",significantly reduced
same,daily food intake after treatment relative to vehicle treated rats,"[4]; experiment C, single administration (Compound 1 5 mg kg-1; Compound 3 10, 20 mg kg-1), days after",reduced
same,"weight gain, difference between 10 mg kg-1 and 20 mg kg-1 treatment groups","[4]; experiment C, single dose, day 5",-12.3 g
same,Ki,[5],0.092 µM
same,"hypothermic effect of CP55,940","[6]; 5 mg kg-1 pre-treatment 45 min before CP55,940 0.3 mg kg-1, compared with vehicle",completely blocked
same,blood brain barrier passage,"[6]; inferred from block of centrally mediated hypothermia, within a short period after administration",crosses the blood brain barrier
